The values below come from paper PMC6973020, “Quinoline‐Conjugated Ruthenacarboranes: Toward Hybrid Drugs with a Dual Mode of Action” (Chemmedchem, 2019).

Experiment [1] concerns U251 human glioma. In words: Crystal violet (CV) cell viability assay, U251. The format is cell-based. The following applies: read-out: IC50 U251. An excerpt: (§1) Thus, care must be taken when comparing their biological activities with those of our previous studies, even with the same cell line, because the covalent vs. non‐covalent combination of drugs might imply different mechanisms of action in the cell.44 Here, we studied the in vitro activity of ruthenacarborane 3, i. e. free acid, and its 8‐hydroxyquinolyl (4) and 4‐{(7‐chloroquinolin‐4‐yl)oxy}butanol‐1‐yl (5) esters, against a panel of cancer cell lines (B16 mouse melanoma, A375 human skin melanoma, MCF‐7 human breast adenocarcinoma, LN229 human glioblastoma, U251 human glioma). Human fibroblast cell line MRC‐5, murine microglial cell line BV‐2 as well as peritoneal exudate cells (Mph), were chosen as models for non‐malignant cells. […] On the other side, we wanted to assess the reproducibility of the viability data, under either controlled (with BSA) or uncontrolled (without BSA) conditions, in two sets of independent assays. […] Cells were exposed to 3–5 for 72 h, after which cell viability was determined via 3‐(4,5‐dimethylthiazol‐2‐yl)‐2,5‐diphenyltetrazolium bromide (MTT) and crystal violet (CV) assays, in parallel (Table 2). Cisplatin was also tested as reference.
(§2) Preparation of drug solutions. […] Stock solution of cisplatin was prepared in DMF (10 mM) immediately before use. A stock solution of BSA in PBS was prepared at 1.28 mM concentration, and stored at 4 °C in the dark. […] Alternatively, 3 or 4 (DMSO stock solution) were added to the BSA solution in PBS, always with a 10 : 1 molar ratio of BSA to ruthenacarborane. The BSA−ruthenacarborane solutions were incubated 0.5–1 h at room temperature, then diluted with cell culture medium to the desired final concentrations. Final concentrations of 3 and 4 were the same as for the BSA‐free formulation. Final DMSO was 0.02–0.5 vol %.
(§3) Colorimetric assays for cellular viability. […] For counting the number of attached (viable) cells, cells were fixed with 4 % (w/v) paraformaldehyde for 10 min at room temperature, and subsequently stained for 15 min with […] crystal violet (CV) solution. Cells were then washed with tap water, dried in air, and the CV dye was dissolved in 33 % (w/v) acetic acid solution. For the detection of mitochondrial respiration, cells were cultivated in MTT staining solution (0.5 mg mL^−1) for approximately 1 h. The dye was then discarded, and the formed formazan (purple) was dissolved in DMSO. The absorbance was measured with an automated microplate reader at λmax 540 nm, with the reference λmax 670 nm. Untreated cells or cells treated only with BSA (control) were also measured, as reference for BSA‐free and BSA‐containing drug formulations, respectively. For determination of the role of autophagy specific inhibitors, CQ or 3‐MA, were applied at a concentration of 20 μM and 0.5 mM, respectively, and the cells were stained with CV dye. Cell viability is expressed as percentage (%) relative to control (untreated cultures).58 Experiments were run in three independent replicates. […] Non‐linear regression analyses of the obtained results was done using GraphPad Prism software to calculate IC50 values.
(§4) mouse microglial cell line BV‐2 was a kind gift from Dr. Irena Lavrnja, Institute for Biological Research
(§5) “Siniša Stanković” (University of Belgrade).

Experiment [2] concerns LN229 human glioblastoma. In words: Crystal violet (CV) cell viability assay, LN229. The format is cell-based. Conditions: read-out: IC50 LN229.
Source text: as §1, §2, §3, §4, §5

The test system of experiment [3] is MCF‐7 human breast adenocarcinoma. In words: MTT cell viability assay, MCF‐7. Conditions: 72 h. The experiment is classed as cell-based.
Source text: as §1, §2
(§6) Colorimetric assays for cellular viability. […] For counting the number of attached (viable) cells, cells were fixed with 4 % (w/v) paraformaldehyde for 10 min at room temperature, and subsequently stained for 15 min with […] crystal violet (CV) solution. Cells were then washed with tap water, dried in air, and the CV dye was dissolved in 33 % (w/v) acetic acid solution. For the detection of mitochondrial respiration, cells were cultivated in MTT staining solution (0.5 mg mL^−1) for approximately 1 h. The dye was then discarded, and the formed formazan (purple) was dissolved in DMSO. The absorbance was measured with an automated microplate reader at λmax 540 nm, with the reference λmax 670 nm. Untreated cells or cells treated only with BSA (control) were also measured, as reference for BSA‐free and BSA‐containing drug formulations, respectively. […] Cell viability is expressed as percentage (%) relative to control (untreated cultures).58 Experiments were run in three independent replicates. […]
For orientation: Tetrazolium dyes change colour on reduction, which living cells bring about.

Experiment [4] has as its system B16 mouse melanoma. In words: Crystal violet (CV) cell viability assay, B16. The experiment is classed as cell-based. Conditions: 72 h.
Source text: as §1, §2, §6

Experiment [5] concerns MCF‐7 human breast adenocarcinoma. In words: Crystal violet (CV) cell viability assay, MCF‐7. The experiment is classed as cell-based. Conditions: 72 h.
Source text: as §1, §2, §6

The subject of experiment [6] is LN229 human glioblastoma. The experiment is described as follows: MTT cell viability assay, LN229. The experiment is classed as cell-based. The following applies: 72 h.
Source text: as §1, §2, §6

For experiment [7], the system named is A375 human skin melanoma. The experiment is described as follows: MTT cell viability assay, A375. The experiment is classed as cell-based. Conditions: 72 h.
Source text: as §1, §2, §6

In experiment [8] the test system is B16 mouse melanoma. In words: MTT cell viability assay, B16. Conditions: 72 h. The format is cell-based.
Source text: as §1, §2, §6

The test system of experiment [9] is A375 human skin melanoma. The experiment is described as follows: Crystal violet (CV) cell viability assay, A375. Conditions: 72 h. The experiment is classed as cell-based.
Source text: as §1, §2, §6

Experiment [10] deals with U251 human glioma. The experiment is described as follows: MTT cell viability assay, U251. The format is cell-based. Conditions: 72 h.
Source text: as §1, §2, §6

Experiment [11] relates to U251 and LN229 cell lines. In words: Cell viability assays (MTT, CV), summary for glioma and glioblastoma lines. The format is cell-based, human. The following applies: concentration range tested up to 100 μM, 72 h.
Source text: as §1
(§7) Preparation of drug solutions. […] Stock solution of cisplatin was prepared in DMF (10 mM) immediately before use. A stock solution of BSA in PBS was prepared at 1.28 mM concentration, and stored at 4 °C in the dark. […] Alternatively, 3 or 4 (DMSO stock solution) were added to the BSA solution in PBS, always with a 10 : 1 molar ratio of BSA to ruthenacarborane. […]
(§8) Colorimetric assays for cellular viability. […] The absorbance was measured with an automated microplate reader at λmax 540 nm, with the reference λmax 670 nm. Untreated cells or cells treated only with BSA (control) were also measured, as reference for BSA‐free and BSA‐containing drug formulations, respectively. […] Cell viability is expressed as percentage (%) relative to control (untreated cultures).58 Experiments were run in three independent replicates. […]

The test system of experiment [12] is Human fibroblast cell line MRC‐5. The experiment is described as follows: MTT cell viability assay, MRC‐5. Conditions: 72 h. The format is cell-based.
Source text: as §1, §7, §8

For experiment [13] the test system is unchanged. The experiment is described as follows: Crystal violet (CV) cell viability assay, MRC‐5. Conditions: 72 h. The experiment is classed as cell-based.
Source text: as §1, §7, §8

In experiment [14] the test system is murine microglial cell line BV‐2. The experiment is described as follows: Crystal violet (CV) cell viability assay, BV‐2. The experiment is classed as cell-based, mouse. The following applies: 72 h.
Source text: as §1, §7, §8

The test system is the same in experiment [15]. The experiment is described as follows: MTT cell viability assay, BV‐2. The format is cell-based, mouse. Conditions: 72 h.
Source text: as §1, §7, §8

The test system of experiment [16] is primary non‐malignant mouse macrophages (Mph). The experiment is described as follows: Crystal violet (CV) cell viability assay, peritoneal macrophages (Mph). The experiment is classed as cell-based. Conditions: 72 h.
Source text: as §1, §7, §8

For `CCN(CC)CCCC(C)Nc1ccnc2cc(Cl)ccc12` (stereo not shown) [CQ, chloroquine, reference compound], the IC50 (as a rule, the midpoint of a concentration-inhibition curve) in the experiment on U251 human glioma [1] (Homo sapiens, U-251, 72 h) was 30 to 50 µM; in the experiment on LN229 human glioblastoma [2] (Homo sapiens, LN-229, 72 h), 30 to 50 µM.
With `N.N.[Cl][Pt][Cl]` [Cisplatin, reference compound], the IC50 in the experiment with U251 human glioma [1] (CV assay, 72 h) was 0.8 ± 0.3 µM; in experiment [3], 3 ± 0.5 µM; with B16 mouse melanoma [4], 10.9 ± 1.2 µM; in [5], 3.5 ± 0.2 µM; with LN229 human glioblastoma [6] it was 4.1 ± 0.4 µM; with A375 human skin melanoma [7], 3.3 ± 0.4 µM. Also, the half-inhibitory concentration (IC50) was determined as 6 ± 0.4 µM in the experiment on B16 mouse melanoma [8]; 3.7 ± 0.1 µM with A375 human skin melanoma [9]; 4.1 ± 0.6 µM in the experiment with LN229 human glioblastoma [2] (CV assay, 72 h); 0.4 ± 0.1 µM in the experiment on U251 human glioma [10].
For “closo ‐[3‐(η^6‐p‐Cymene)‐1‐[(7‐chloroquinolin‐4‐yl)oxy]butyl acetate)‐3,1,2‐RuC2B9H10] [Compound 5]”, the “activity against LN229 and U251 (in words)” value in [11] is “inactive”. The IC50 in experiment [12] is more than 100 µM; in experiment [13] it was more than 100 µM; with U251 human glioma [1] (CV assay, 72 h), more than 100 µM; in experiment [3], 15.5 ± 1.5 µM; in [14], more than 100 µM; with B16 mouse melanoma [4], 33.7 ± 2.9 µM. The IC50 is 34.1 ± 0.5 µM in experiment [5]; 86.7 ± 3 µM in the experiment with LN229 human glioblastoma [6]; 43.4 ± 0.3 µM in the experiment with A375 human skin melanoma [7]; 9.5 ± 1.8 µM in the experiment on B16 mouse melanoma [8]; more than 100 µM in the experiment with A375 human skin melanoma [9]; 82.5 ± 7.6 µM with LN229 human glioblastoma [2] (CV assay, 72 h). The IC50 with U251 human glioma [10] was more than 100 µM; in [15], 12.3 ± 0.1 µM; in experiment [16] it was more than 100 µM.
